The target in series [1] is T1, S1PR2 (Homo sapiens, UniProt O95136).
T1 construct: purchased
Kind of series: competitive [^32P]S1P binding assay on cell membranes, S1PR2.
Procedure: The test compounds were dissolved in DMSO and diluted into test samples with increasing concentrations with assay buffer. Commercial cell membranes expressing recombinant human S1PR were diluted with assay buffer to make a 20-40 μg/mL of solution. […] The plate was incubated for 60 min at room temperature with shaking and terminated by collecting the membranes onto 96-well glass fiber (GF/B) filtration plates (Millipore, Billerica, Mass.). Each filter was washed with 200 μL of assay buffer for a total of five washes. […] The IC50 values were fitted from GraphPad Prism 6 using one site Nonlinear Regression.

For series [2], the target named is T2, S1PR1 (Homo sapiens, UniProt P21453).
T2 construct: purchased
Kind of series: competitive [^32P]S1P binding assay on cell membranes, S1PR1. The conditions noted are these: Table 5. Here is the method: (§1) The test compounds were dissolved in DMSO and diluted into test samples with increasing concentrations with assay buffer. Commercial cell membranes expressing recombinant human S1PR were diluted with assay buffer to make a 20-40 μg/mL of solution. […] The plate was incubated for 60 min at room temperature with shaking and terminated by collecting the membranes onto 96-well glass fiber (GF/B) filtration plates (Millipore, Billerica, Mass.). Each filter was washed with 200 μL of assay buffer for a total of five washes. The filter bound radionuclide was measured by a Beckman LS 3801 scintillation counter using Cherenkov counting. The IC50 values were fitted from GraphPad Prism 6 using one site Nonlinear Regression.

For series [3], the target named is T3, S1PR3 (Homo sapiens, UniProt Q99500).
T3 construct: purchased
Kind of series: competitive [^32P]S1P binding assay on cell membranes, S1PR3. The settings on record: Table 5. Here is the method:
as §1

[4] abbreviates: [^32P]S1P competition, IC50 ± SD, second Table 1, read-out: S2PR2 IC50.
[5] abbreviates: [^32P]S1P competition, IC50 ± SD, Table 1 (2a-l, 4a-h), read-out: IC50 (binding potency toward S1PR2).
[6] abbreviates: [^32P]S1P competition, read-out: IC50 value, S1PR2 binding.

Structures are written as SMILES. Read-outs that look alike come from different tables or passages of the source.

T3 sequence (Q99500 whole entry): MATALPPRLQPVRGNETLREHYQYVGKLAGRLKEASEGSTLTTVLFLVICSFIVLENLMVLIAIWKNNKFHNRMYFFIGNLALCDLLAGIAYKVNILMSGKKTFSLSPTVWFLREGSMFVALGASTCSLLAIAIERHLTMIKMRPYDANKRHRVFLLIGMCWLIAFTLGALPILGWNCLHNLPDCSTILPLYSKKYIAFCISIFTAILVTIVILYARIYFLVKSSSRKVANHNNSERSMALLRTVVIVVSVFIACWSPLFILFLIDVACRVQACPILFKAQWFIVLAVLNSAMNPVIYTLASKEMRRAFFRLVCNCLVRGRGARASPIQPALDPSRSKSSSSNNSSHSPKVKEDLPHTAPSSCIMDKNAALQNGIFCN
T1 sequence (O95136 whole entry): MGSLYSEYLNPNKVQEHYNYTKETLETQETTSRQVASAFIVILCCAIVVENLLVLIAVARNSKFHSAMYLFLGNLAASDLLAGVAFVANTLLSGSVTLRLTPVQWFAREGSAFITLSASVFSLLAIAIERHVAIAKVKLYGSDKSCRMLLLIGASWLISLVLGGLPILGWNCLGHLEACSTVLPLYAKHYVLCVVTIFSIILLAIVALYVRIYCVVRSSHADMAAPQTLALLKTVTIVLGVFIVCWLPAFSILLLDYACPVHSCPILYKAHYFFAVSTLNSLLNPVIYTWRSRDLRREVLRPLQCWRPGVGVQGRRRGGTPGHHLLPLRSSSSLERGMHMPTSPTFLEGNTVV
T2 sequence (P21453 whole entry): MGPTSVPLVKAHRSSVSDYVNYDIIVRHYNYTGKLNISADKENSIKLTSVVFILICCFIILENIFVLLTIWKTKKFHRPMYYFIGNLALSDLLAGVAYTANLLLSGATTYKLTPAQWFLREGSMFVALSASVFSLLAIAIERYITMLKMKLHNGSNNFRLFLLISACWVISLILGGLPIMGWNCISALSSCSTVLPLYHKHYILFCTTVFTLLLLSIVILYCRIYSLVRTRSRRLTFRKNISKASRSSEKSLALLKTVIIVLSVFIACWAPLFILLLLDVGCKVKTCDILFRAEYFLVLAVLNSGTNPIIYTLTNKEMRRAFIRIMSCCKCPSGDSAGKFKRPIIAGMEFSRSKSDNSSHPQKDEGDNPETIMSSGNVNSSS

As for `CC(C)CC1(O)CCN(C(=O)Nc2cc(Oc3ccc(OCCF)cc3)cc(Oc3ccc(S(C)(=O)=O)cc3)c2)CC1` [TZ57-033], the IC50 in series [1] (Table 5, read-out: IC50 S1PR2) was 525 ± 119 nM; in series [2], above 1000 nM; in series [3], above 1000 nM.
As for `CCC(CC)CC1(O)CCN(C(=O)Nc2cc(Oc3ccc(S(C)(=O)=O)cc3)cc(C(F)(F)F)c2)CC1` [TZ51-033], the 50% inhibitory concentration (IC50) in series [1] (Table 5, read-out: IC50 S1PR2) was 296 ± 32 nM; in series [2], above 1000 nM; in series [3], above 1000 nM.
Turning to `CC(C)CC1(O)CCN(C(=O)Nc2cc(Oc3ccc(F)cc3)cc(Oc3ccc(C(=O)NCCF)cc3)c2)CC1` [TZ57-029], the IC50 was 195 ± 36 nM in series [1] (Table 5, read-out: IC50 S1PR2); above 1000 nM in series [2]; above 1000 nM in series [3].
Consider `CCC(CC)CC1(O)CCN(C(=O)Nc2cc(Oc3ccc(F)cc3)cc(Oc3ccc4c(c3)CCNC4=O)c2)CC1` [TZ57-090], for which the IC50 was 30 ± 4 nM in series [1] (Table 5, read-out: IC50 S1PR2); above 1000 nM in series [2]; above 1000 nM in series [3].
With `CCC(CC)CC1(O)CCN(C(=O)Nc2cc(Oc3ccc(F)cc3)cc(C(F)(F)F)c2)CC1` [Compound 17c, 4-(2-Ethylbutyl)-N-(3-(4-fluorophenoxy)-5-(trifluoromethyl)phenyl)-4-hydroxypiperidine-1-carboxamide], the melting point lay within 108 to 111 °C. Moreover, the IC50 in series [1] (setting [4]) is 362 nM.
As for `CCC(CC)CC1(O)CCN(C(=O)Nc2cc(Oc3ccc(F)cc3)cc(Oc3ccc(C(=O)NCCF)cc3)c2)CC1` [TZ57-028], the IC50 in series [2] and in series [3] was above 1000 nM each time.
On to `CCC(CC)CC1(O)CCN(C(=O)Nc2cc(Oc3ccc(F)cc3)cc(Oc3ccc4c(c3)CCN(C)C4=O)c2)CC1` [TZ57-089], for which the 50% inhibitory concentration (IC50) in series [1] (Table 5, read-out: IC50 S1PR2) is 73 ± 11 nM; in series [2], above 1000 nM; in series [3] it was above 1000 nM.
For `COc1ccc(NC(=O)Cn2c(=O)c3ccccc3n(CC(=O)Nc3cc(Cl)c(OC)cc3OC)c2=O)cc1` [TZ59-104, N-(5-Chloro-2,4-dimethoxyphenyl)-2-(3-(2-((4-methoxyphenyl)amino)-2-oxoethyl)-2,4-dioxo-3,4-dihydroquinazolin-1(2H)-yl)acetamide], the IC50 in series [1] (Table 5, read-out: IC50 S1PR2) is 5.7 ± 0.5 nM; in series [2], above 1000 nM; in series [3], above 1000 nM.
Turning to `CCC(CC)CC1(O)CCN(C(=O)Nc2cc(Oc3ccc(OCCF)cc3)cc(Oc3ccc(S(C)(=O)=O)cc3)c2)CC1` [TZ57-034], the IC50 is 418 ± 118 nM in series [1] (Table 5, read-out: IC50 S1PR2); above 1000 nM in series [2]; above 1000 nM in series [3].
`CC(C)CC1(O)CCN(C(=O)Nc2cc(Oc3ccc(F)cc3)cc(Sc3ccc(S(C)(=O)=O)cc3)c2)CC1` [TZ57-031]: the 50% inhibitory concentration (IC50) in series [2] and in series [3] was above 1000 nM throughout.
Consider `CNC(=O)c1ccc(Oc2cc(NC(=O)N3CCC(O)(CC(C)C)CC3)cc(C(F)(F)F)c2)cc1` [TZ51-024], for which the IC50 was 284 ± 27 nM in series [1] (Table 5, read-out: IC50 S1PR2); above 1000 nM in series [2]; above 1000 nM in series [3].
As for `CC(C)CC1(O)CCN(C(=O)Nc2cc(Oc3ccc(F)cc3)cc(C(F)(F)F)c2)CC1` [TZ51-032], the 50% inhibitory concentration (IC50) in series [1] (Table 5, read-out: IC50 S1PR2) is 165 ± 35 nM; in series [2], above 1000 nM; in series [3], above 1000 nM.
The compound `CC(C)CC1(O)CCN(C(=O)Nc2cc(Oc3ccc(F)cc3)cc(Oc3ccc(C(=O)NCCF)cc3)c2)CC1` [Compound 28f, N-(3-(4-((2-fluoroethyl)carbamoyl)phenoxy)-5-(4-fluorophenoxy)phenyl)-4-hydroxy-4-isobutylpiperidine-1-carboxamide] had a melting point of 81 to 83 °C.
For the compound `CC(C)CC1(O)CCN(C(=O)Nc2cc(Oc3ccc(S(C)(=O)=O)cc3)cc(C(F)(F)F)c2)CC1` [TZ51-035], the IC50 in series [1] (Table 5, read-out: IC50 S1PR2) was 270 ± 72 nM; in series [2], above 1000 nM; in series [3], above 1000 nM.
Take `CCC(CC)CC1(O)CCN(C(=O)Nc2cc(Oc3ccc(F)cc3)cc(Sc3ccc(S(C)(=O)=O)cc3)c2)CC1` [TZ57-032]: the concentration for half-maximal inhibition (IC50) in series [2] and in series [3] was above 1000 nM in each case.
Regarding `O=C(O)Cn1c(=O)c2ccccc2n(CC(=O)Nc2cc(Cl)nc(Cl)c2)c1=O` [TZ62-092], the concentration for half-maximal inhibition (IC50) in series [1] (Table 5, read-out: IC50 S1PR2) is above 1000 nM.
In series [1] (IC50 S1PR2, Table 5), `CNC(=O)c1ccc(Oc2cc(NC(=O)N3CCC(=O)CC3)cc(C(F)(F)F)c2)cc1` [TZ51-020] returned a half-inhibitory concentration (IC50) above 1000 nM.
As for `CNC(=O)Cn1c(=O)c2ccccc2n(CC(=O)Nc2cc(Cl)c(OC)cc2OC)c1=O` [Compound 2k], the IC50 in series [1] (setting [5]) amounted to 376 ± 91 nM.
`CCC(CC)CC1(O)CCN(C(=O)Nc2cc(OCCF)cc(Oc3ccc(F)cc3)c2)CC1` [TZ51-149]: in series [1] (Table 5, read-out: IC50 S1PR2), the IC50 was above 1000 nM.
`CCC(CC)CC1(O)CCN(C(=O)Nc2cc(Oc3ccc(F)cc3)cc(Oc3ccc(OC)cc3)c2)CC1` [Compound 28a, 4-(2-Ethylbutyl)-N-(3-(4-fluorophenoxy)-5-(4-methoxyphenoxy)phenyl)-4-hydroxypiperidine-1-carboxamide] returned a melting point of 79 to 80 °C. The half-inhibitory concentration (IC50) in series [1] (setting [6]) came out at 188 nM.
Consider `CC(C)C(O)C1CCN(C(=O)Nc2cc(Oc3ccc(F)cc3)cc(Oc3ccc(S(C)(=O)=O)cc3)c2)CC1` (stereo not shown) [TZ57-065], for which, in series [1] (Table 5, read-out: IC50 S1PR2), the IC50 is above 1000 nM.
As to `CCC(CC)CC1(O)CCN(C(=O)Nc2cc(Oc3ccc(S(C)(=O)=O)cc3)cc(C(F)(F)F)c2)CC1` [Compound 21f, 4-(2-Ethylbutyl)-4-hydroxy-N-(3-(4-(methylsulfonyl)phenoxy)-5-(trifluoromethyl)phenyl)piperidine-1-carboxamide], the half-maximal inhibitory concentration (IC50) in series [1] (setting [6]) turned out to be 270 nM.
With `CNC(=O)c1ccc(Oc2cc(NC(=O)N3CCC4(CC3)OCCO4)cc(C(F)(F)F)c2)cc1` [TZ51-022], the IC50 in series [1] (IC50 S1PR2, Table 5) is above 1000 nM.
Consider `CCC1(O)CCN(C(=O)Nc2cc(Oc3ccc(S(C)(=O)=O)cc3)cc(C(F)(F)F)c2)CC1` [TZ51-047], for which the concentration for half-maximal inhibition (IC50) in series [1] (Table 5, read-out: IC50 S1PR2) is above 1000 nM.
Turning to `CC(C)CC1(O)CCN(C(=O)Nc2cc(Oc3ccc(S(C)(=O)=O)cc3)cc(C(F)(F)F)c2)CC1` [Compound 25h, 4-Hydroxy-4-isobutyl-N-(3-(4-(methylsulfonyl)phenoxy)-5-(trifluoromethyl)phenyl)piperidine-1-carboxamide], the concentration for half-maximal inhibition (IC50) in series [1] (setting [4]) amounted to 296 nM.
Take `CCC(CC)CC1(O)CCN(C(=O)Nc2cc(Oc3ccc(S(C)(=O)=O)cc3)cc(Sc3ccc(F)cc3)c2)CC1` [TZ57-155]: in series [1] (Table 5, read-out: IC50 S1PR2), the 50% inhibitory concentration (IC50) amounted to 143 ± 30 nM.
Still for that read-out and setting: the same measure for `CCC(CC)CC1(O)CCN(C(=O)Nc2ccc(Oc3ccc(F)cc3)cc2)CC1` [TZ57-103]: above 1000 nM; for `CCOc1ccc(C(=O)Cn2c(=O)n(CC(=O)Nc3ccccc3OC)c(=O)c3ccccc32)cc1Cl` [TZ62-114]: 49.8 ± 4.9 nM; for `CCC(CC)CC1(O)CCN(C(=O)Nc2cc(C(C)C)c3c(C)nn(C)c3n2)CC1` [TZ59-023]: above 1000 nM.
As to `CN1CCN(c2cc(Oc3ccc(F)cc3)cc([N+](=O)[O-])c2)CC1` [Compound 15a, 1-(3-(4-Fluorophenoxy)-5-nitrophenyl)-4-methylpiperazine], the 50% inhibitory concentration (IC50) in series [1] (setting [6]) was above 1000 nM.
Consider `CNC(=O)c1ccc(Sc2cc(NC(=O)N3CCC(O)(CC(C)C)CC3)cc(C(F)(F)F)c2)cc1` [TZ51-121], for which the IC50 in series [1] (Table 5, read-out: IC50 S1PR2) was 421 ± 90 nM.
The same measure, in the same setting: the same measure for `COc1cc(OC)c(NC(=O)CN2C(=O)N(CC(=O)Nc3ccccc3OC)Cc3ccccc32)cc1Cl` [TZ62-018]: above 1000 nM; for `CCC(CC)CC1(O)CCN(C(=O)Nc2cc(C(=O)c3ccc(S(C)(=O)=O)cc3)cc(C(F)(F)F)c2)CC1` [TZ59-092]: 700 ± 111 nM.
As to `CNC(=O)c1ccc(Oc2cc(NC(=O)N3CCOCC3)cc(C(F)(F)F)c2)cc1` [TZ51-019], the concentration for half-maximal inhibition (IC50) in series [1] (Table 5, read-out: IC50 S1PR2) is above 1000 nM.
Turning to `COc1cc(OC)c(NC(=O)Cn2c(=O)n(CC(=O)Nc3ccc(O)cc3)c(=O)c3ccccc32)cc1Cl` [Compound 2e], in series [1] (setting [6]), the IC50 came to 2.6 ± 0.3 nM.
For `CNC(=O)Cn1c(=O)c2ccccc2n(CC(=O)Nc2cc(Cl)c(OC)cc2OC)c1=O` [TZ59-135, N-(5-Chloro-2,4-dimethoxyphenyl)-2-(3-(2-(methylamino)-2-oxoethyl)-2,4-dioxo-3,4-dihydroquinazolin-1(2H)-yl)acetamide], in series [1] (Table 5, read-out: IC50 S1PR2), the half-inhibitory concentration (IC50) came to 376 ± 91 nM.
Consider `COc1ccccc1NC(=O)Cn1c(=O)c2ccccc2n(CC(=O)c2ccc(F)cc2)c1=O` [TZ62-016], for which the IC50 in series [1] (Table 5, read-out: IC50 S1PR2) was above 1000 nM.
In the case of `CNC(=O)c1ccc(Oc2cc(NC(=O)N3CC(O)(CC(C)C)C3)cc(C(F)(F)F)c2)cc1` [TZ51-097], in series [1] (Table 5, read-out: IC50 S1PR2), the concentration for half-maximal inhibition (IC50) is above 1000 nM.
With `CCC(CC)CC1(O)CCN(C(=O)Nc2cc(OCCCF)cc(Oc3ccc(C(=O)NC)cc3)c2)CC1` [TZ51-133], the IC50 in series [1] (Table 5, read-out: IC50 S1PR2) is above 1000 nM.
For the compound `COc1cc(OC)c(NC(=O)Cn2c(=O)n(CC(=O)N(C)C)c(=O)c3ccccc32)cc1Cl` [Compound 2l], the IC50 in series [1] (setting [5]) amounted to 175 ± 13 nM.
Turning to `COc1ccccc1NC(=O)Cn1c(=O)c2ccccc2n(Cc2ccc(F)cc2)c1=O` [TZ62-014], in series [1] (Table 5, read-out: IC50 S1PR2), the half-inhibitory concentration (IC50) is above 1000 nM.
As for `CS(=O)(=O)c1ccc(Oc2nc(NC(=O)N3CCc4ccccc4C3)nc(C(F)(F)F)n2)cc1` [TZ57-047], the half-inhibitory concentration (IC50) in series [1] (Table 5, read-out: IC50 S1PR2) is above 1000 nM.

These data come from patent US20200369626A1 (Washington University, priority 2019, published 2020).
